In patent US5981555A, “Compositions, kits and methods for administration of antilipemic drugs” (Lipoprotein Technologies, Inc., priority 1997, dated 1999):
Values joined by “and” are separate entries in the source; they are usually repeats but may differ in a detail not shown here. Identical values can stand only once. Like-named read-outs stand apart in the source and are kept apart here.

How the values were obtained:
[1] = tested on: inflammation; details: cited from earlier work
[2] = tested on: prostaglandin synthetase (cyclooxygenase); details: Flower, Pharmacol. Rev. 26:33 (1974); cited from earlier work
[3] = tested on: PGD-M, the major urinary metabolite of PGD2; assay: Urinary excretion of PGD-M after nicotinic acid (Example 1, FIGS. 1, 2); type: in vivo, human
Procedure: (§1) Two weeks later, the same subjects were administered 40 of mg aspirin for each of four days. […] Urinary excretion of PGD-M was much lower (FIG. 2), confirming the suppressive activity of aspirin on PGD2 release. Release of PGF2 after aspirin pretreatment (40 mg) was approximately 10% of baseline (FIG. 3).

[4] = tested on: flushing induced by nicotinic acid; assay: Niacin flushing after bid aspirin pretreatment (Example 2); type: in vivo, human
Procedure: Three subjects were administered 40 mg of aspirin twice daily (i.e., bid) in the morning and evening for three days.

[5] = tested on: human macrophage cell line THP-1; assay: PG release from THP-1 cells in vitro (Examples 3 and 6); type: cell-based; details: for IC50: Homo sapiens
Excerpt: Indomethacin was used in place of aspirin to inhibit PG production in THP-1 cells in vitro as in Example 3.

[6] = tested on: eicosanoid metabolites in urine; details: oral administration (FIG. 8)
Excerpt: (§2) Langerhans cells, the macrophages of skin, may differ from other macrophages in releasing lesser amounts of eicosanoids other than PGD2.

[7] = tested on: release of eicosanoids from skin; details: topical niacin (FIG. 7)
Excerpt: as §2

[8] = tested on: human circulating monocytes; details: FIG. 4
[9] = within days after initiating therapy; cited from earlier work
[10] = tested on: prostaglandin F2, a metabolite of D; details: cited from earlier work
[11] = tested on: flushing induced by nicotinic acid; type: in vivo, human
Procedure: Two weeks later, the same subjects were administered 40 of mg aspirin for each of four days.

[12] = tested on: PGF2 release; assay: PG release following topical nicotinic acid with or without aspirin pretreatment (FIG. 3); type: in vivo, human; details: aspirin pretreatment (40 mg) (FIG. 3)
Procedure: as §1

[13] = tested on: flushing induced by niacin; assay: Niacin flushing after sustained release aspirin pretreatment (Example 7); type: in vivo, human
[14] = tested on: flushing induced by nicotinic acid; assay: Cutaneous blood flow (FLUX) by laser Doppler, flushing severity and duration (Example 8); type: in vivo, human; details: mean ± S.D., n = 14
Procedure: (§3) Fourteen healthy male subjects completed the study. After randomization, subjects were given a placebo or 81 mg of aspirin bid for three days. The study was double-blind.
(§4) Room temperature and humidity were constant during the trial.
(§5) Flushing was measured in three ways: (1) quantitatively using laser Doppler, (2) subjectively via questionnaire, and (3) by measuring a biochemical marker of flushing, a stable metabolite of prostaglandin D2. Complete pharmacokinetic parameters in timed blood samples after oral administration were also measured in plasma and urine. Flushing, as measured by continuous and simultaneous recording of cutaneous blood flow on each side of the neck using laser Doppler techniques (Moor Instruments), provides an arbitrary representation of cutaneous blood flow defined as FLUX. Flux is expressed in arbitrary units (AU) from baseline (FLUXpeak-FLUXbaseline; see FIG. 11B). Duration of flush is the time in minutes from the beginning to the end of Flux shift in the DRTSOFT plot.

[15] = tested on: flushing induced by nicotinic acid; assay: Local skin temperature change (Example 8); type: in vivo, human; details: mean ± S.D.; n = 14; p = 0.016 (paired t test)
Procedure: as §3, §4

[16] = tested on: flushing induced by nicotinic acid; assay: Rating of flushing by subject (Example 8); type: in vivo, human; details: number of subjects; n = 14; p < 0.05 (Wilcoxon)
Procedure: as §3, §4, §5

[17] = tested on: flushing induced by nicotinic acid; assay: Rating of flushing by investigator (Example 8); type: in vivo, human; details: number of subjects; n = 14; p < 0.05 (Wilcoxon)
Procedure: as §3, §4, §5

[18] = tested on: nicotinic acid-induced flush; details: pretreatment at 4.5 and 0.5 hr; indomethacin 25 or 50 mg/kg; aspirin 50, 100, or 200 mg/kg; cited from earlier work
[19] = tested on: cutaneous flush induced by nicotinic acid; details: 975 mg total: 650 mg at 1 hr and 325 mg at 0.5 hr prior to nicotinic acid; cited from earlier work
[20] = tested on: niacin-induced cutaneous reactions; details: cited from earlier work
[21] = tested on: platelet aggregation; details: cited from earlier work
[22] = tested on: PG production in other cell types; details: cited from earlier work
[23] = Physician's Desk Reference, 51st ed.
[24] = 325 mg aspirin 30 minutes prior to niacin
[25] = initial testing, out of 306 patients, over 33 months

Cc1ccc(C(=O)c2ccc(CC(=O)O)n2C)cc1 [Tolmetin]
Minimum Anti-inflammatory Dosage [1, 23]: 400 mg

CCc1cccc2c3c([nH]c12)C(CC)(CC(=O)O)OCC3 (stereo not shown) [Etodolac]
Minimum Anti-inflammatory Dosage ([1]; Goodman and Gilman, 9th ed.): 200 mg

CC(C)Cc1ccc(C(C)C(=O)O)cc1 (stereo not shown) [ibuprofen]
inhibition of synthesis of PGs such as E2 and F2, concentrations [2]: high micromolar

CN1C(C(=O)Nc2ccccn2)=C(O)c2ccccc2S1(=O)=O [Piroxicam]
Minimum Anti-inflammatory Dosage [1, 23]: 10 mg

CC1=C(CC(=O)O)c2cc(F)ccc2/C1=C\c1ccc([S+](C)[O-])cc1 (stereo not shown) [Sulindac]
Minimum Anti-inflammatory Dosage ([1]; Goodman and Gilman, 9th ed.): 150 mg

CC(C(=O)O)c1cccc(Oc2ccccc2)c1 (stereo not shown) [Fenoprofen]
Minimum Anti-inflammatory Dosage ([1]; Goodman and Gilman, 9th ed.): 300 mg

O=C(O)c1cccnc1 [niacin, nicotinic acid]
excretion of PGD-M in urine ([3]; 500 mg nicotinic acid 1 hour after single 40 mg aspirin, over 7 hours (FIG. 1)): significant amounts | flushing, nicotinic acid without aspirin ([4]; single 500 mg dose without aspirin, all three subjects): severe flushing | in vitro release of PGs from THP-1 ([5]; FIG. 4): stimulate in vitro release of PGs | metabolites of PGD2 in urine [6]: increased amounts | metabolites of leukotriene in urine [6]: increased amounts | metabolites of thromboxane in urine [6]: increased amounts | release of 9a, 11b-PGF2 [7]: increased the release | release of thromboxane (TxB2) [7]: did not release | in vitro release of PGs from human circulating monocytes [8]: stimulate in vitro release of PGs | patients who cease taking nicotinic acid [9]: 30-40 % of patients | level of prostaglandin F2 on repeated administration ([10]; after 6 days of continuous, twice daily administration): decreases markedly | concentration of prostaglandin F2 in blood coming from the skin ([10]; following administration of niacin): dramatic rise

CCCCC1C(=O)N(c2ccccc2)N(c2ccccc2)C1=O [phenylbutazone]
inhibition of synthesis of PGs such as E2 and F2, concentrations [2]: high micromolar

CC(C(=O)O)c1ccc(-c2ccccc2)c(F)c1 (stereo not shown) [Flurbiprofen]
Minimum Anti-inflammatory Dosage ([1]; Goodman and Gilman, 9th ed.): 50 mg

O=C(O)Cc1ccccc1Nc1c(Cl)cccc1Cl [Diclofenac]
Minimum Anti-inflammatory Dosage ([1]; Goodman and Gilman, 9th ed.): 100 mg

O=C(O)CCc1nc(-c2ccccc2)c(-c2ccccc2)o1 [Oxaprozin]
Minimum Anti-inflammatory Dosage ([1]; Goodman and Gilman, 9th ed.): 600 mg

COc1ccc2cc([C@H](C)C(=O)O)ccc2c1 [naproxen]
inhibition of synthesis of PGs such as E2 and F2, concentrations [2]: high micromolar | Minimum Anti-inflammatory Dosage [1, 23]: 250 mg

CC(C(=O)O)c1cccc(C(=O)c2ccccc2)c1 (stereo not shown) [Ketoprofen]
Minimum Anti-inflammatory Dosage ([1]; Goodman and Gilman, 9th ed.): 150 mg

COc1ccc2cc(CCC(C)=O)ccc2c1 [Nabumetone]
Minimum Anti-inflammatory Dosage [1, 23]: 500 mg

CC(=O)Oc1ccccc1C(=O)O [aspirin]
subjective sensation ([11]; 40 mg aspirin 1 hour prior to 500 mg immediate release nicotinic acid, all three subjects): subjective sensation of cutaneous warmth | flushing ([11]; 40 mg aspirin 1 hour prior to single 500 mg immediate release nicotinic acid, all three subjects): severe flushing | flushing after multi-day aspirin pretreatment ([11]; 40 mg aspirin each of four days, 500 mg nicotinic acid on fourth day 1 hour after aspirin, two of three subjects): virtually no flushing | flushing after multi-day aspirin pretreatment, third subject ([11]; 40 mg aspirin each of four days, 500 mg nicotinic acid on fourth day, third subject): some flushing, but less than that encountered previously | urinary excretion of PGD-M after multi-day aspirin ([3]; 40 mg aspirin each of four days, 500 mg nicotinic acid on fourth day (FIG. 2)): much lower | release of PGF2 after aspirin pretreatment [12]: approximately 10 % of baseline | flushing, bid aspirin pretreatment ([4]; 40 mg aspirin bid three days, fourth day 500 mg immediate release nicotinic acid with 40 mg aspirin, three subjects): None of the subjects experienced any appreciable flushing | IC50 ([5]; THP-1, read-out: IC50, inhibition of niacin-stimulated release of PG from THP-1 cells): ~380 nM and ~0.07 µg/mL | flushing, aspirin 1/2 hour before niacin, third subject ([13]; 325 mg aspirin 1/2 hour before 500 mg immediate release niacin, third subject): severe flushing | flushing, aspirin 1/2 hour before niacin ([13]; 325 mg aspirin 1/2 hour before 500 mg immediate release niacin, two subjects): flushing, though slightly diminished | side effects from niacin versus sustained release aspirin predosing ([13]; 325 mg aspirin 1/2 hour before niacin, compared with SR aspirin for 6 hours, three subjects): significantly greater side effects | AUCflux ([14]; aspirin 81 mg bid three days then 500 mg nicotinic acid + 81 mg aspirin vs placebo then niacin, p = 0.0001 (paired t test)): 3022.5 + 2772 | Flushing duration ([14]; p = 0.002 (paired t test)): 15.8 ± 16 min | Local T° change [15]: 0.61 ± 0.56 °C | Rating of Flushing by Subject: Mild [16]: 4 | Rating of Flushing by Subject: Moderate [16]: 1 | Rating of Flushing by Subject: None [16]: 6 | Rating of Flushing by Subject: Severe [16]: 3 | Rating of Flushing by Subject: Very severe [16]: 0 | Rating of Flushing by Investigator: Mild [17]: 2 | Rating of Flushing by Investigator: Moderate [17]: 3 | Rating of Flushing by Investigator: None [17]: 8 | Rating of Flushing by Investigator: Severe [17]: 1 | Rating of Flushing by Investigator: Very severe [17]: 0 | inhibition of synthesis of PGs such as E2 and F2, concentrations [2]: high micromolar | inhibition of nicotinic acid-induced flush (increase in ear temperature) [18]: inhibited | reduction of cutaneous flush [19]: significantly reduce cutaneous flush | niacin-associated flushing, warmth, itching and tingling, 80 mg aspirin ([20]; 80 mg aspirin 30 minutes prior to niacin, compared to placebo): even more aggravated flushing, warmth, itching and tingling | niacin-associated warmth, flushing, itching and tingling, 325 mg aspirin [20, 24]: decrease the warmth and flushing associated with niacin, but not the itching and tingling | patients with flushing and warmth [20, 24]: at least 72 % of the patients | patients with complete inhibition of platelet aggregation [21, 25]: 288 patients | patients with partial inhibition of platelet aggregation [21, 25]: 78 patients | patients with initial partial inhibition achieving complete inhibition ([21]; of 52 patients, dosage escalation or fluctuation of response): 35 | patients reverted to partial inhibition on further testing ([21]; of the 35): 8 | patients converted from complete to partial inhibition ([21]; repeat testing, without change in aspirin dosage): about 33% | Minimum Anti-inflammatory Dosage [1, 23]: 325 mg

O=C(O)c1ccccc1Nc1cccc(C(F)(F)F)c1 [flufenamic acid]
inhibition of synthesis of PGs such as E2 and F2, concentrations [2]: high micromolar

O=C(c1ccccc1)c1ccc2n1CCC2C(=O)O (stereo not shown) [Ketorolac]
Minimum Anti-inflammatory Dosage ([1]; Goodman and Gilman, 9th ed.): 5 mg

COc1ccc2c(c1)c(CC(=O)O)c(C)n2C(=O)c1ccc(Cl)cc1 [indomethacin]
IC50 ([5]; THP-1, read-out: IC50, PG production in THP-1 cells): ~1 nM | sensitivity of THP-1 cells relative to other cells ([5]; THP-1 versus other cells): approximately 1000 times | inhibitory concentrations on PG production in other cell types [22]: micromolar range | inhibition of synthesis of PGs such as E2 and F2, concentrations [2]: high micromolar | inhibition of nicotinic acid-induced flush (increase in ear temperature) [18]: inhibited | Minimum Anti-inflammatory Dosage [1, 23]: 25 mg
